Laboratory results published in patent US11957783B2, “Topical immunosensitizers to treat viral and fungal infections” (Squarex, LLC, priority 2018, dated 2024).

How the values were obtained:
Type in all cases: in vivo, human
[1] = system: blood cells (B-Cells, T-Cells, helper/cytotoxic); test: Blood cell counts of subjects; settings: for Absolute Count CD19 (B-Cells), group average / Helper/Cytotoxic Ratio, group average / Percentage CD3 (T-Cells), group average / Percentage CD19 (B-Cells), group average / T-cell to B-cell ratio, group average: n = 12
Experimental: (§1) After a screening visit at which blood was drawn to test for IgG antibody against HSV-1 and subjects were interviewed for inclusion/exclusion criteria, selected subjects returned for blood draws on day 1. After the blood draw on day 1, subjects in group A only were dosed with SADBE. A petrolatum donut was applied with a cotton swab to form about a 1 cm diameter donut on skin on the inner aspect of the upper arm. Then a separate cotton swab was dipped in a 2% SADBE solution (w/v) in DMSO, and the swab was then used to apply about 10-20 mg of solution over about a 1 cm diameter circle within the petrolatum donut. Immediately after application, the application site was covered with TEGADERM. Subjects were advised to remove the TEGADERM and rinse and wipe the spot three hours later. The group A subjects then returned for blood draws on days 15 and 57 and were queried about adverse events on those dates.
At this study visit where blood was drawn it was tested for blood cell counts, various cytokine levels, and anti-HSV-1 IgG quantitative levels.
Certain blood cell count parameters were measured in the study. Differences vs. group A day 1 that are statistically significant are highlighted in bold underline.

[2] = Adverse events after single topical SADBE dose, Phase 1 study (Example 1)
Experimental: as §1
Of the 12 subjects treated, two experienced stinging at the application site, and one had nausea that was ruled possibly related to the study drug.

herpes labialis outbreak = test: Clinical trial of herpes labialis outbreaks after sensitization dose (Example 2)
Experimental: The median time to the next outbreak for the placebo group was 40 days vs more than 122 days for the 2.0% SADBE group, which difference was highly significant (P=0.009) (Palli 2017). SADBE is a topical immunosensitizer that induces a delayed-type hypersensitivity response and is commonly used in the treatment of verruca vulgaris and alopecia areata (Lee 1999; Silverberg 2000, Rokhshar 1998). […]
(p<0.05). The average days to the first outbreak after the sensitization dose was also measured. […] The A: placebo, 0% SADBE in DMSO.

CCCCOc1c(OCCCC)c(=O)c1=O [SADBE, 3,4-Dibutoxy-3-cyclobutene-1,2-dione]
Absolute Count CD19 (B-Cells), Sample/A1 ([1]; A15 / group A day 1): 0.88 | Helper/Cytotoxic Ratio, Sample/A1 ([1]; A15 / group A day 1): 0.68 | Percentage CD3 (T-Cells), Sample/A1 ([1]; A15 / group A day 1): 1.02 | Percentage CD19 (B-Cells), Sample/A1 ([1]; A15 / group A day 1): 0.83 | T-cell to B-cell ratio, Sample/A1 ([1]; A15 / group A day 1): 1.35 | Absolute Count CD19 (B-Cells), Sample minus A1 ([1]; A15 minus group A day 1): −22.63 cells/mm^3 | Helper/Cytotoxic Ratio, Sample minus A1 ([1]; A15 minus group A day 1): −1.67 | Percentage CD3 (T-Cells), Sample minus A1 ([1]; A15 minus group A day 1): 1.42% | Percentage CD19 (B-Cells), Sample minus A1 ([1]; A15 minus group A day 1): −2.08% | T-cell to B-cell ratio, Sample minus A1 ([1]; A15 minus group A day 1): 2.41 | Absolute Count CD19 (B-Cells), Sample/A1 ([1]; A57 / group A day 1): 0.99 | Helper/Cytotoxic Ratio, Sample/A1 ([1]; A57 / group A day 1): 0.83 | Percentage CD3 (T-Cells), Sample/A1 ([1]; A57 / group A day 1): 1.03 | Percentage CD19 (B-Cells), Sample/A1 ([1]; A57 / group A day 1): 0.95 | T-cell to B-cell ratio, Sample/A1 ([1]; A57 / group A day 1): 1.01 | Absolute Count CD19 (B-Cells), Sample minus A1 ([1]; A57 minus group A day 1): −1.85 cells/mm^3 | Helper/Cytotoxic Ratio, Sample minus A1 ([1]; A57 minus group A day 1): −0.90 | Percentage CD3 (T-Cells), Sample minus A1 ([1]; A57 minus group A day 1): 2.58% | Percentage CD19 (B-Cells), Sample minus A1 ([1]; A57 minus group A day 1): −0.58% | T-cell to B-cell ratio, Sample minus A1 ([1]; A57 minus group A day 1): 0.69 | Absolute Count CD19 (B-Cells), group average ([1]; group A day 15 (A15)): 171.74 cells/mm^3 | Helper/Cytotoxic Ratio, group average ([1]; group A day 15 (A15)): 3.58 | Percentage CD3 (T-Cells), group average ([1]; group A day 15 (A15)): 77.50% | Percentage CD19 (B-Cells), group average ([1]; group A day 15 (A15)): 10.17% | T-cell to B-cell ratio, group average ([1]; group A day 15 (A15)): 9.22 | Absolute Count CD19 (B-Cells), group average ([1]; group A day 57 (A57)): 192.52 cells/mm^3 | Helper/Cytotoxic Ratio, group average ([1]; group A day 57 (A57)): 4.35 | Percentage CD3 (T-Cells), group average ([1]; group A day 57 (A57)): 78.67% | Percentage CD19 (B-Cells), group average ([1]; group A day 57 (A57)): 11.67% | T-cell to B-cell ratio, group average ([1]; group A day 57 (A57)): 7.50 | rashes or delayed-type hypersensitivity reactions ([2]; 12 subjects treated): No rashes or delayed-type hypersensitivity reactions were reported | tolerability of study drug ([2]; 12 subjects, single topical 2% SADBE in DMSO on arm): well tolerated | subjects who experienced stinging at the application site ([2]; of the 12 subjects treated): two | subjects with nausea ruled possibly related to the study drug ([2]; of the 12 subjects treated): one | proportion who had a first outbreak between 30 and 120 days after receiving the sensitization dose (herpes labialis outbreak; pooled groups B and C (2% SADBE in DMSO sensitization), placebo group A 4 of 14): 5 of 26 | median time to the next outbreak, outbreaks in the 21 days after the sensitization dose excluded (herpes labialis outbreak; treatment group, counting from day of sensitization dose, placebo 56 days): greater than 120 days | median time to the next outbreak (herpes labialis outbreak; treatment group, from sensitization dose (2% SADBE), placebo 42 days, log rank P 0.009): greater than 120 days | median time to the next outbreak, counting from day 21 after the sensitization dose (herpes labialis outbreak; treatment group, placebo 35 days): greater than 99 days | subsequent outbreak during the study time (herpes labialis outbreak; treatment groups B and C receiving 2% SADBE in DMSO as sensitization dose): usually did not have a subsequent outbreak during the study time | median time to next HSV outbreak in treated patients without visible erythema at application site (herpes labialis outbreak; versus placebo): longer median time to the next HSV outbreak than patients receiving placebo
